Data on 1 compound can be found in US20240239786A1, “COMPOSITIONS AND METHODS FOR THE TREATMENT AND PREVENTION OF CANCER” (Yale University, priority 2021, published 2024).

The subject of one experiment is HR repair. The experiment in a line: HR reporter assay in SKOV3-DR-GFP cells. Format: cell-based. The conditions noted are these: Homo sapiens, SK-OV-3, I-SceI-induced DSB, 48 hr, read-out: IC50 for inhibiting HR repair. The text has this:
(§1) Cells were transfected with the ISceI-expressing plasmid and then treated various concentrations of DB4 for 48 hr. Cells were harvested, stained with 7-AAD, and analyzed by flow cytometry for GFP-positive cells indicative of HR repair activity. […] Cells were transfected with the ISceI-expressing plasmid and treated with various concentrations of DB4. Cells were harvested, stained with 7-AAD, and stained, and analyzed by flow cytometry for GFP-positive cells indicative of NHEJ activity. Data are means±SD (N=3). *, p<0.05; **, p<0.01, compared with the 0 μM control of ISceI-transected cells. […] Cells were also scored for nuclei containing equal or more than 10 distinct Rad51 foci to determine the percentage of cells positive for Rad51 foci. […] Protein was assessed by western blot analysis for the levels of γH2AX, p-H1, cyclin A2, p-CDK1/2, and HSC70. […] The band density of γH2AX indicative of DSBs was quantified by densitometry. […]
The ability of DB4 to inhibit endonuclease-induced DSB repair of reporter genes in SKOV3 cells was evaluated. […]
(§2) SKOV3-DR-GFP cells were established as described previously (Lin Z P et al., 2014, Molecular Cancer Res, 12:381-393). […] Cells were then trypsinized, stained with 7-AAD, and analyzed for the percentage of GFP-positive and […] cells by flow cytometry using an LSR II flow cytometer (BD Biosciences) and FlowJo software (Tree Star; Ashland, OR). […]

In another experiment the test system is cNHEJ activity. Kind of experiment: NHEJ reporter assay in SKOV3-EJ5-GFP cells. The class given is cell-based. The conditions noted are these: I-SceI-mediated DSBs.
Excerpt: as §1, with “cells. FIG. 7C depicts representative results of confocal imaging of olaparib-induced nuclear Rad51 foci in SKOV3 cells treated DB4.” for “cells.”
as §2

By IC50 is commonly meant the concentration that gives 50% inhibition. In the case of `C=CCn1c(SCc2cccc(Cl)c2)nnc1C1CCN(Cc2nc3ccccc3s2)CC1` [DB4, 2-[(4-{4-allyl-5-[(3-chlorobenzyl)thio]-4H-1,2,4-triazol-3-yl}-1-piperidinyl)methyl]-1,3-benzothiazole], the IC50 in the experiment with HR repair amounted to 5.4 µM. The cNHEJ activity result with cNHEJ activity was “appeared to enhance the cNHEJ activity induced by I-SceI-mediated DSBs but the increase was not statistically significant”.
